Where a chain is given by its changes, count along the chain named.
Experiments:
Dbl-transformed MEFs = settings: adapted from Wang et al. 2010; cited from earlier work
488-D391K-GAC = molecular target: T1, 488-D391K-GAC (Mus musculus, UniProt D3Z7P3, D391K); assay: Real-time binding read-out by fluorescence quenching, dimer mutant; settings: 20 nM 488-labeled protein, 968 titration
T1 construct: plasmid (residues 72-603 for GAC, 72-674 for KGA); His-tag with thrombin cleavage site (N, cleaved yes); made in house; host or cells: pET23a vector
T1 sequence (D3Z7P3 72-603 isoform D3Z7P3-2 D391K): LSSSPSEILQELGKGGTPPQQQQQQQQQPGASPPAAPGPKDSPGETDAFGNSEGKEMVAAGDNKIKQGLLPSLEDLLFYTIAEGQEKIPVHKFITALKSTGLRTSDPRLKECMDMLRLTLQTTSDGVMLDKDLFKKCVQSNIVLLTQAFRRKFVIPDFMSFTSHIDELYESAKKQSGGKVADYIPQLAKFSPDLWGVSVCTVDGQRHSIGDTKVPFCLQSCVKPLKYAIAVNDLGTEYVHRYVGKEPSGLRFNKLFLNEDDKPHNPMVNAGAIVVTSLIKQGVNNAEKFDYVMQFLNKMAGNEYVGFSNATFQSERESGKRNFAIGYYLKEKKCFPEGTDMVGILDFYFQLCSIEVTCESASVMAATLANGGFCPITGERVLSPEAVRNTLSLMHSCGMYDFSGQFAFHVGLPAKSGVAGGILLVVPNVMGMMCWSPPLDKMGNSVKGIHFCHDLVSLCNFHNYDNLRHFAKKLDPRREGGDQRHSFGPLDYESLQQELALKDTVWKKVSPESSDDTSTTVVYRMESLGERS
Method: (§1) Real-time fluorescence monitoring of 488-GAC fluorescence and NADH fluorescence was performed on a Varian Carry Eclipse Fluorometer, whereas small molecule inhibition and binding titrations were performed in a 96-well format using Grenier non-binding 96-well plates in a Tecan Saphire absorbance and fluorescence plate reader. Samples for monitoring real time binding of 968 to 488-GAC were prepared by adding 10 […] (490 nm excitation/520 nm emission). Similarly, this method was replicated for monitoring real time binding of 968 to KGA and mutant forms of GAC, namely 488-D391K-GAC and 488-K316E-D391K-R459E-GAC. Titrations of 968 with mutant forms of GAC were done in triplicate and quantified by the following equation
[formula] where F is the normalized fluorescence at given drug concentration (i.e., F/F0), and Fsat is the normalized fluorescence at saturating concentrations of drug, as shown in FIG. 7A. […] 10 nM WT GAC was added and allowed to equilibrate 2 minutes before beginning to monitor fluorescence of 488-GAC (490 nm excitation, 520 nm emission) and NADH fluorescence (340 nm excitation, 490 nm emission). […] The activity of GAC was indirectly measured by the NADH produced by the added glutamate dehydrogenase, which converts the product of glutaminase activity, glutamate, to α-ketoglutarate and ammonia through reducing NAD^+ to NADH. […]

488-GAC (WT) = molecular target: T2, 488-GAC (WT) (Mus musculus, UniProt D3Z7P3); assay: Real-time binding read-out by 488-GAC fluorescence quenching; settings: for quenching of 488-GAC fluorescence (direct binding): 10 nM 488-GAC, no QSY 9-GAC
T2 construct: plasmid (residues 72-603 for GAC, 72-674 for KGA); His-tag with thrombin cleavage site (N, cleaved yes); made in house; host or cells: pET23a vector
T2 sequence (D3Z7P3 72-603 isoform D3Z7P3-2): T1 sequence (D3Z7P3 72-603 isoform D3Z7P3-2 D391K) with K320D
Method: as §1
[formula] where F is the normalized fluorescence at given drug concentration (i.e., F/F0), and Fsat is the normalized fluorescence at saturating concentrations of drug, as shown in FIG. 7A. […] 10 nM WT GAC was added and allowed to equilibrate 2 minutes before beginning to monitor fluorescence of 488-GAC (490 nm excitation, 520 nm emission) and NADH fluorescence (340 nm excitation, 490 nm emission). […] The activity of GAC was indirectly measured by the NADH produced by the added glutamate dehydrogenase, which converts the product of glutaminase activity, glutamate, to α-ketoglutarate and ammonia through reducing NAD^+ to NADH. Because solutions containing glutamine undergo non-enzymatic degradation to glutamate, samples were further analyzed by subtracting the evolved NADH produced by glutaminase in the presence of 968, BPTES, or the equivalent volume of DMSO as a control, by the evolved NADH produced in the absence of glutaminase under identical experimental conditions. Evolved NADH was quantified using a standard curve of freshly prepared NADH (Sigma) in 50 mM Tris-Acetate pH=8.5, 0.1 mM EDTA.
Procedures for the described real-time binding and inhibition assays were adapted for 96-well microtiter format with minor alterations. […] Quenching was quantified by subtracting the normalized fluorescence by one (i.e., 1-F/F0). […]

CN(C)c1ccc(C2Nc3ccc4ccccc4c3C3=C2C(=O)CC(C)(C)C3)cc1Br (centres unmarked) [compound 968]
inhibition of the ability of Dbl-transformed MEFs to form foci (Dbl-transformed MEFs): dose dependent
binding to dimeric GAC (D391K) mutant (488-D391K-GAC): capable of binding
quenching of 488-GAC fluorescence (direct binding) (488-GAC (WT)): concentration dependent quenching
binding to 488-labeled GAC (WT) (488-GAC (WT); 20 nM 488-labeled protein, 968 titration): capable of binding

O=C(Cc1ccccc1)Nc1nnc(CCSCCc2nnc(NC(=O)Cc3ccccc3)s2)s1 [BPTES]
quenching of 488-GAC fluorescence (direct binding) (488-GAC (WT)): without affecting the fluorescence emission
